Reference: PubChem BioAssay AID1963853 (Molecular Pharmacology Branch, DTP, NCI, 2024)

Tested on: 266295-075-R-J1-PDC spheroid viability
Assay: Anticancer human tumor 266295-075-R-J1-PDC patient-derived head and neck squamous carcinoma cell line growth inhibition [POLQ]
Details: spheroids with HUVEC and MSC; for IC50: curve of first compound; for viability, T/C: stronger effect = lower value
Procedure: Multicellular complex tumor spheroid response to Polymerase (POL) inhibitors (novobiocin, ART-558, RP6685) in combination with a variety of drugs and investigational agents in selected tumor cell lines
The POL inhibitors (novobiocin, ART-558, and RP6685) were evaluated both individually and in combination with standard of care and investigational anticancer small molecules within a complex spheroid model of solid tumors. . Complex spheroids include a stromal component modeled by human endothelial cells (HUVEC) and fibroblasts modeled by human mesenchymal stem cells (MSCs). The concentration ranges selected for each drug and investigational agent were based upon clinically achievable concentrations if the clinical Cmax of the agent was known.
Compounds. The drugs and investigational agents: novobiocin (NSC847541), ART-558 (NSC835418), RP-6685 (NSC848927), peposertib (NSC802822), ceralasertib (NSC780249), elimusertib (NSC800525), camonsertib (NSC841442), AZD-1390 (NSC803789), olaparib (NSC753686), talazoparib (NSC767125), rucaparib (NSC756644), sotorasib (NSC818433), MRTX-1133 (NSC836407), SN-38 (NSC673596), topotecan (NSC609699), epotoside (NSC141540), doxorubicin (NSC123127), gemcitabine (NSC613327), 5-fluorouracil (NSC19893), paclitaxel (NSC125973), vemurafenib (NSC761431), MSA-2 (NSC828583), SN-011 (NSC837082), adavosertib (NSC754352), prexasertib (NSC758257), carboplatin (NSC241240) and oxaliplatin (NSC266046), were obtained from the National Cancer Institute (NCI) Developmental Therapeutics Program Chemical Repository (21). The FDA-approved anticancer drug set is available from the Developmental Therapeutics Program at https://dtp.cancer.gov/organization/dscb/obtaining/. […] The stock solutions were prepared in dimethyl sulfoxide (DMSO, Sigma-Aldrich, St. Louis, MO, cat. D2650), except for the platinum compounds which were prepared in saline (Quality Biological, Gaithersburg, MD, cat. 114-055-101), at 800-fold the tested concentration and stored at -70 degrees C prior to their use. All drugs and investigational agents were tested over a range starting from a high concentration at or near the clinical Cmax and decreasing in half-log increments. If the clinical Cmax for an agent had not been determined, the highest concentration tested was 10 microM, except for SN-38, which was tested at a high concentration of 1 microM.
Cell Culture. All cells were maintained in an incubator at 37 degrees C and 5% CO2 with 95% humidity. The PDC lines were cultured according to standard operating procedures established by the NCI PDMR (https://pdmr.cancer.gov). Table 3 of the manuscript, lists the cell lines along with the number of the three cell types plated to form the mct-spheroids and media for tumor cell growth. After thawing, all PDC lines, except 997537-175-T-J1-PDC and 415267-285-R-J2-PDC, were cultured in Matrigel-coated flasks prepared with a working solution of 1X Ham's F-12 nutrient mix, without supplementation (Thermo Fisher Scientific, cat. 11765054), 100 U/mL penicillin-streptomycin (Thermo Fisher Scientific, cat. 15140122), and 2.5% Matrigel (Corning Inc., Corning, NY, cat. 354248) for the first three passages. The two PDC lines 997537-175-T-J1-PDC and 415267-285-R-J2-PDC were cultured on uncoated flasks. The 857933-349-R-J2-PDC line was cultured in 6C/Colon 1B media containing advanced DMEM/F-12 (Thermo Fisher Scientific, cat. 12634028), 10 mM HEPES (Thermo Fisher Scientific, cat. 15630080), 1X GlutaMAX supplement (Thermo Fisher Scientific, cat. 35050061), 0.1 mg/mL primocin (InvivoGen, San Diego, CA, cat. ant-pm-2), 10% defined fetal bovine serum, heat inactivated (HyClone Laboratories Inc., Logan, UT, cat. SH30070.03HI), 50% L-WRN conditioned media (ATCC, cat. CRL-3276), 1.25 mM N-Acetyl-L-cysteine (Sigma-Aldrich, cat. A9165), 10 mM nicotinamide (Sigma-Aldrich, cat. N0636), 1X B-27 supplement (Thermo Fisher Scientific, cat. 17504044), 1X N-2 supplement (Thermo Fisher Scientific, cat. […]

[1] = second compound 0.0316 µM, first compound 0.0316 µM
[2] = second compound 0.0316 µM, first compound 0.1 µM
[3] = second compound 0.0316 µM, first compound 0.316 µM
[4] = second compound 0.0316 µM, first compound 1 µM
[5] = second compound 0.1 µM, first compound 0.0316 µM
[6] = second compound 0.1 µM, first compound 0.1 µM
[7] = second compound 0.1 µM, first compound 0.316 µM
[8] = second compound 0.1 µM, first compound 1 µM
[9] = second compound 0.316 µM, first compound 0.0316 µM
[10] = second compound 0.316 µM, first compound 0.1 µM
[11] = second compound 0.316 µM, first compound 0.316 µM
[12] = second compound 0.316 µM, first compound 1 µM
[13] = second compound 1 µM, first compound 0.0316 µM
[14] = second compound 1 µM, first compound 0.1 µM
[15] = second compound 1 µM, first compound 0.316 µM
[16] = second compound 1 µM, first compound 1 µM
[17] = second compound 3.16 µM, first compound 0.0316 µM
[18] = second compound 3.16 µM, first compound 0.1 µM
[19] = second compound 3.16 µM, first compound 0.316 µM
[20] = second compound 3.16 µM, first compound 1 µM
[21] = second compound 10 µM, first compound 0.0316 µM
[22] = second compound 10 µM, first compound 0.1 µM
[23] = second compound 10 µM, first compound 0.316 µM
[24] = second compound 10 µM, first compound 1 µM
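Further: spheroids exposed to compounds for seven days before readout.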

SMILES: CCc1c2c(nc3ccc(O)cc13)-c1cc3c(c(=O)n1C2)COC(=O)[C@]3(O)CC + Nc1ccc(C#CCN(C(=O)Cc2ncc(C(F)(F)F)cc2C(F)(F)F)c2ccc(F)cc2)nn1
- IC50 (second compound 0.0316 µM): > 1 µM
- IC50 (second compound 0.1 µM): > 1 µM
- IC50 (second compound 0.316 µM): > 1 µM
- IC50 (second compound 1 µM): > 1 µM
- IC50 (second compound 3.16 µM): > 1 µM
- IC50 (second compound 10 µM): > 1 µM
- viability, T/C (second compound 0.0316 µM, first compound 0.00316 µM): 86.6%
- viability, T/C (second compound 0.0316 µM, first compound 0.01 µM): 96%
- viability, T/C [1]: 84.6%
- viability, T/C [2]: 97.7%
- viability, T/C [3]: 106%
- viability, T/C [4]: 81%
- viability, T/C (second compound 0.1 µM, first compound 0.00316 µM): 103%
- viability, T/C (second compound 0.1 µM, first compound 0.01 µM): 80.7%
- viability, T/C [5]: 76.9%
- viability, T/C [6]: 102%
- viability, T/C [7]: 96.2%
- viability, T/C [8]: 75.4%
- viability, T/C (second compound 0.316 µM, first compound 0.00316 µM): 98.6%
- viability, T/C (second compound 0.316 µM, first compound 0.01 µM): 83.1%
- viability, T/C [9]: 80.2%
- viability, T/C [10]: 101%
- viability, T/C [11]: 117%
- viability, T/C [12]: 73.5%
- viability, T/C (second compound 1 µM, first compound 0.00316 µM): 106%
- viability, T/C (second compound 1 µM, first compound 0.01 µM): 82.7%
- viability, T/C [13]: 81.9%
- viability, T/C [14]: 85.8%
- viability, T/C [15]: 101%
- viability, T/C [16]: 63.4%
- viability, T/C (second compound 3.16 µM, first compound 0.00316 µM): 108%
- viability, T/C (second compound 3.16 µM, first compound 0.01 µM): 96.8%
- viability, T/C [17]: 96.1%
- viability, T/C [18]: 109%
- viability, T/C [19]: 99.5%
- viability, T/C [20]: 65%
- viability, T/C (second compound 10 µM, first compound 0.00316 µM): 100%
- viability, T/C (second compound 10 µM, first compound 0.01 µM): 97.1%
- viability, T/C [21]: 83.2%
- viability, T/C [22]: 81.5%
- viability, T/C [23]: 117%
- viability, T/C [24]: 70.4%

SMILES: Nc1ccn(C2OC(CO)C(O)C2(F)F)c(=O)n1 (centres undefined) + Nc1ccc(C#CCN(C(=O)Cc2ncc(C(F)(F)F)cc2C(F)(F)F)c2ccc(F)cc2)nn1
- IC50 (second compound 0.0316 µM): > 10 µM
- IC50 (second compound 0.1 µM): > 10 µM
- IC50 (second compound 0.316 µM): > 10 µM
- IC50 (second compound 1 µM): > 10 µM
- IC50 (second compound 3.16 µM): > 10 µM
- IC50 (second compound 10 µM): > 10 µM
- viability, T/C [1]: 100%
- viability, T/C [2]: 106%
- viability, T/C [3]: 81.6%
- viability, T/C [4]: 77%
- viability, T/C (second compound 0.0316 µM, first compound 3.16 µM): 93.7%
- viability, T/C (second compound 0.0316 µM, first compound 10 µM): 85.3%
- viability, T/C [5]: 112%
- viability, T/C [6]: 98.8%
- viability, T/C [7]: 72.6%
- viability, T/C [8]: 96.5%
- viability, T/C (second compound 0.1 µM, first compound 3.16 µM): 92.1%
- viability, T/C (second compound 0.1 µM, first compound 10 µM): 80.4%
- viability, T/C [9]: 105%
- viability, T/C [10]: 88%
- viability, T/C [11]: 78.5%
- viability, T/C [12]: 94.8%
- viability, T/C (second compound 0.316 µM, first compound 3.16 µM): 95.7%
- viability, T/C (second compound 0.316 µM, first compound 10 µM): 82%
- viability, T/C [13]: 105%
- viability, T/C [14]: 82.9%
- viability, T/C [15]: 92%
- viability, T/C [16]: 101%
- viability, T/C (second compound 1 µM, first compound 3.16 µM): 94.3%
- viability, T/C (second compound 1 µM, first compound 10 µM): 82.5%
- viability, T/C [17]: 124%
- viability, T/C [18]: 94.2%
- viability, T/C [19]: 90.5%
- viability, T/C [20]: 95.1%
- viability, T/C (second compound 3.16 µM, first compound 3.16 µM): 83.7%
- viability, T/C (second compound 3.16 µM, first compound 10 µM): 75.7%
- viability, T/C [21]: 93.2%
- viability, T/C [22]: 101%
- viability, T/C [23]: 82.8%
- viability, T/C [24]: 89.7%
- viability, T/C (second compound 10 µM, first compound 3.16 µM): 75.5%
- viability, T/C (second compound 10 µM, first compound 10 µM): 72.2%
